Measured values published in patent US20260033491A1, “FUNGAL SPORE FORMULATIONS INCLUDING CARRIER FLUIDS” (priority 2018, published 2026).
Like-named read-outs stand apart in the source and are kept apart here. Marks after values point to notes of the source that are not given here.

Columns and labels:
Assay type in all cases: cell-based
[1] = system: Beauveria bassiana spores; assay: Spore viability (germination rate) of Beauveria bassiana spores dispersed in fluid and stored at 30° C.
Protocol: (§1) 1.5 g of Beauveria bassiana pure spore powder were transferred into a formulation vessel (IKA Type DT-20 mixing vessel with dispersion tool for Ultra Turrax) using a sterile spoon. 13.5 mL of fluid were added into the respective formulation vessel and dispersed using ultra turrax tube drive control for 1 min at 3000 rpm; change direction after 30 sec. After this 2.8 mL were transferred in four sample bottles (Wheaton Serum vial, Type I) leaving little headspace and closed tight using crimpneck caps (Macherey—Nagel type N 13) Afterwards all sample bottles were transferred to an incubator set at 30° C. and stored for a given time.
(§2) In regular intervals a sample was retrieved from the storage location and analyzed for spore viability. Therefore the original samples were thoroughly homogenized. Aliquots of 0.25 g or 250 μL of each sample are transferred into 50 mL falcon tubes. The tubes were filled up to 25 g using a sterile aqueous solution containing 2% Tween 80 and homogenized by vortexing to achieve the first dilution step (1:100 dilution). This dilution was used for further dilution and spotting on agar.
(§3) For these samples, an alternative dispersion/dilution method was applied where the oil phase is stripped from the spores first: 0.25 g or 250 μL of sample are weighted into a 2 mL Eppendorf tube, and 0.5 mL of 2% Tween 80 is added, and the mixture is transferred into an Eppendorf centrifuge where it is centrifuged for 1 min at 10.000 rpm. The supernatant (=upper oily phase) is discarded by using a pipette. […] 250 μL or 0.25 g of each sample are transferred into a sterile 50 mL Falcon tube. The tubes were filled up to 25 g using a sterile aqueous solution containing 2% Tween 80 and homogenized by vortexing to achieve the first dilution step (1:100 dilution). This dilution is used for further dilution and spotting on agar.
(§4) For evaluation of spore germination rate prepare a 1:15000 dilution based on the 1:100 dilution achieved by multiple automated dilution (pipetting robot, 96 well plate). Afterwards 12×12 cm agar plates are taken and spotted with 10 times 5 μL of each sample using an automated 12-Channel pipet. Wait until liquid is soaked up by agar and transfer agar plate to an incubator and incubate at 20° C. for 17 hours. Open the plate and place it under the microscope. Randomly chose one area per spot and record the number of germinated and non-germinated spores that are within the designated field. At least 200 spores per sample need to be evaluated. If needed count more than one field per spot.

[2] = system: Purpureocillium lilacinum spores; assay: Spore viability (germination rate) of Purpureocillium lilacinum spores dispersed in fluid and stored at 30° C.
Protocol: as §1, with “3” for “1.5”, “Purpureocillium lilacinum” for “Beauveria bassiana”, “12” for “13.5”, “13).” for “13)”
as §2, with “For this purpose,” for “Therefore”, “were” for “are”
as §3, with “oil phase was stripped from” for “oil phase is stripped from”, “each sample were transferred into” for “each sample are transferred into”, “This dilution was used for” for “This dilution is used for”
as §4, with “a 1:30000” for “a 1:15000”, “plates were” for “plates are”, “at 25°” for “at 20°”

[3] = system: Penicillium bilaii spores; assay: Spore viability (germination rate) of Penicillium bilaii spores dispersed in fluid and stored at 30° C.
Protocol: as §1, with “Penicillium bilaii” for “Beauveria bassiana”
as §2
Not all samples mixed well or mixed at all in 2% Tween 80. For these samples, an alternative dispersion/dilution method was applied where the oil phase is stripped from the spores first: 0.25 g or 250 μL of sample are weighted into a 2 mL Eppendorf tube, and 0.5 mL of 2% Tween 80 is added, and the mixture is transferred into an Eppendorf centrifuge where it is centrifuged for 1 min at 10.000 rpm. The supernatant (=upper oily phase) is discarded by using a pipette. Afterwards 250 μL of Breakthru S 240 are added and the spores are well dispersed. 250 μL or 0.25 g of each sample are transferred into a sterile 50 mL Falcon tube. The tubes were filled up to 25 g using a sterile aqueous solution containing 2% Tween 80 and homogenized by vortexing to achieve the first dilution step (1:100 dilution). This dilution is used for further dilution and spotting on agar.
as §4

[4] = Beauveria bassiana spores in fluid, day 1
[5] = Beauveria bassiana spores in fluid, storage at 30° C., 14 d
[6] = Beauveria bassiana spores in fluid, storage at 30° C., 35 d
[7] = P. lilacinum spores in fluid, day 1
[8] = P. lilacinum spores in fluid, storage at 30° C., 35-40 d
[9] = P. lilacinum spores in fluid, storage at 30° C., 87-92 d
[10] = Penicillium bilaii spores in fluid, 1-2 d
[11] = Penicillium bilaii spores in fluid, storage at 30° C., 41-43 d
[12] = Penicillium bilaii spores in fluid, storage at 30° C., 83-85 d
[13] = P. lilacinum spores in fluid, storage at 30° C., 12-15 d
[14] = P. lilacinum spores in fluid, storage at 30° C., 27-28 d
[15] = P. lilacinum spores in fluid, storage at 30° C., 51-55 d
[16] = P. lilacinum spores in fluid, storage at 30° C., 7 m

## CCCCOC(=O)CC(CC(=O)OCCCC)(OC(C)=O)C(=O)OCCCC [Acetyltributylcitrat, O-Acetyl citric acid tributyl ester]
[1]; [4]
  spore viability [%] at day 1: 85.5%
[1]; [5]
  spore viability [%] after 2 w (14 d): 76.7%
[1]; [6]
  spore viability [%] after 5 w (35 d): 58.8%
[2]; [7]
  spore viability [%] at day 1: 98.9%
[2]; [8]
  spore viability [%] after 5-6 w (35-40 d): 98.0%
[2]; [9]
  spore viability [%] after 3 m (87-92 d): 87.5%
[3]; [10]
  spore viability [%] initial (1-2 d): 98.4%
[3]; [11]
  spore viability [%] 6 w@30° C. (41-43 d): 83.8%
[3]; [12]
  spore viability [%] 3 m@30° C. (83-85 d): 60.6%

## CC(C)CCCCCCOC(=O)C1CCCCC1C(=O)OCCCCCCC(C)C (stereo not drawn) [Agnique AE829, 1,2-Cyclohexane dicarboxylic acid diisononyl ester]
[1]; [4]
  spore viability [%] at day 1: 89.7%
[1]; [5]
  spore viability [%] after 2 w (14 d): 74.9%
[1]; [6]
  spore viability [%] after 5 w (35 d): 57.8%
[2]; [13]
  spore viability [%] after 2 w (12-15 d): 97.3%
[2]; [14]
  spore viability [%] after 1 m (27-28 d): 96.5%
[2]; [15]
  spore viability [%] after 2 m (51-55 d): 89.8%
[3]; [10]
  spore viability [%] initial (1-2 d): 95.3%
[3]; [11]
  spore viability [%] 6 w@30° C. (41-43 d): 89.4%
[3]; [12]
  spore viability [%] 3 m@30° C. (83-85 d): 71.9%

## CC(C)OC(=O)CCCCC(=O)OC(C)C [Crodamol DA, Diisopropyl adipate]
[2]; [7]
  spore viability [%] at day 1: 98.2%
[2]; [16]
  spore viability [%] taken after 7 m of storage: 51.3* %
[2]; [13]
  spore viability [%] after 2 w (12-15 d): 94.3%
[2]; [14]
  spore viability [%] after 1 m (27-28 d): 95.0%
[2]; [15]
  spore viability [%] after 2 m (51-55 d): 68.2%

## CCCCCOC(=O)CC [Pentyl Propionate, Propionic acid Pentyl ester]
[2]; [7]
  spore viability [%] at day 1: 99.1%
[2]; [8]
  spore viability [%] after 5-6 w (35-40 d): 94.6%
[2]; [9]
  spore viability [%] after 3 m (87-92 d): 16.1%

## CCCCCC[C@@H](O)C/C=C\CCCCCCCC(=O)OC [Radia 7081, Ricinolic acid methylester]
[2]
  spore viability [%] after 1 m (27-28 d): 95.8%
  spore viability [%] after 2 m (51-55 d): 88.6%
  spore viability [%] after 2 w (12-15 d): 94.7%

## CCCCCCCCCCCC(=O)OCC(CC)CCCC (stereo not drawn) [Radia 7127, 2-Ethylhexyl laurate]
[1]; [4]
  spore viability [%] at day 1: 91.3%
[1]; [5]
  spore viability [%] after 2 w (14 d): 76.3%
[1]; [6]
  spore viability [%] after 5 w (35 d): 68.4%
[2]; [7]
  spore viability [%] at day 1: 99.1%
[2]; [16]
  spore viability [%] taken after 7 m of storage: 40.6* %
[2]; [13]
  spore viability [%] after 2 w (12-15 d): 99.0%
[2]; [14]
  spore viability [%] after 1 m (27-28 d): 98.3%
[2]; [15]
  spore viability [%] after 2 m (51-55 d): 88.4%
[3]; [10]
  spore viability [%] initial (1-2 d): 97.1%
[3]; [11]
  spore viability [%] 6 w@30° C. (41-43 d): 96%
[3]; [12]
  spore viability [%] 3 m@30° C. (83-85 d): 77.9%

## CCCCCCCC/C=C\CCCCCCCC(=O)OCC(CC)CCCC (stereo not drawn) [Radia 7331, 2-Ethylhexyl oleate]
[1]; [4]
  spore viability [%] at day 1: 91.5%
[1]; [5]
  spore viability [%] after 2 w (14 d): 81.4%
[1]; [6]
  spore viability [%] after 5 w (35 d): 66.3%
[2]; [13]
  spore viability [%] after 2 w (12-15 d): 97.9%
[2]; [14]
  spore viability [%] after 1 m (27-28 d): 95.9%
[2]; [15]
  spore viability [%] after 2 m (51-55 d): 85.9%
[3]; [10]
  spore viability [%] initial (1-2 d): 97.1%
[3]; [11]
  spore viability [%] 6 w@30° C. (41-43 d): 91.4%
[3]; [12]
  spore viability [%] 3 m@30° C. (83-85 d): 75.7%

## CCCCCCCC/C=C\CCCCCCCC(=O)OCC(CC)CCCC (stereo not drawn) [Radialube 7130, 2-Ethylhexyl oleate]
[2]; [13]
  spore viability [%] after 2 w (12-15 d): 98.5%
[2]; [14]
  spore viability [%] after 1 m (27-28 d): 94.3%
[2]; [15]
  spore viability [%] after 2 m (51-55 d): 87.9%

## Fatty acid monoglyceride diacetate [Radia 7909]
[1]
  spore viability [%] after 2 w (14 d): 11.5%
  spore viability [%] after 5 w (35 d): 18.1%
  spore viability [%] at day 1: 75.1%
[2]
  spore viability [%] after 3 m (87-92 d): 78.5%
  spore viability [%] after 5-6 w (35-40 d): 96.5%
  spore viability [%] at day 1: 98.1%
[3]
  spore viability [%] 3 m@30° C. (83-85 d): 42.0%
  spore viability [%] 6 w@30° C. (41-43 d): 75.6%
  spore viability [%] initial (1-2 d): 90.6%

## Neopentylglycol dicocoate [Radialube 7302]
[1]
  spore viability [%] after 5 w (35 d): 52.7%

## Sorbitan trioleate [Radiasurf 7355]
[1]
  spore viability [%] after 2 w (14 d): 71.3%
  spore viability [%] after 5 w (35 d): 60.4%
[2]
  spore viability [%] after 3 m (87-92 d): 64.1%
  spore viability [%] after 5-6 w (35-40 d): 96.4%
  spore viability [%] at day 1: 98.3%

## Trimethylolpropane Tricocoate [Radialube 7359]
[2]
  spore viability [%] after 1 m (27-28 d): 87.8%
  spore viability [%] after 2 m (51-55 d): 87.5%
  spore viability [%] after 2 w (12-15 d): 60.6^# %
  spore viability [%] at day 1: 58.0^# %
  spore viability [%] taken after 7 m of storage: 87.3* %

## Trimethylolpropane Triisostearate [Radia 7380]
[2]; [13]
  spore viability [%] after 2 w (12-15 d): 96.5%
[2]; [14]
  spore viability [%] after 1 m (27-28 d): 89.3%
[2]; [15]
  spore viability [%] after 2 m (51-55 d): 86.0%

## Trimethylolpropane Trioleate [Radialube 7361]
[2]; [13]
  spore viability [%] after 2 w (12-15 d): 97.2%
[2]; [14]
  spore viability [%] after 1 m (27-28 d): 92.3%
[2]; [15]
  spore viability [%] after 2 m (51-55 d): 85.4%
